In patent US9365563B2, “TRPV1 antagonists including dihydroxy substituent and uses thereof” (Purdue Pharma L.P., priority 2007, dated 2016):

What was measured:
Aqueous solubility = assay type: physicochemical
[1] = Plasma concentration after administration to an animal; assay type: in vivo
human TRPV1 = human TRPV1 (Homo sapiens (Human), UniProt Q8NER1); assay: Capsaicin-based assay, Protocol 2 (hCAP-CHO); assay type: cell-based; conditions: TRPV1/CHO cells, 100 nM capsaicin; mean ± SEM; read-out: TRPV1 IC50 Potency Human Capsaicin CHO (hCAP-CHO)
human TRPV1, sequence (Q8NER1 whole entry, the tested form may be a part): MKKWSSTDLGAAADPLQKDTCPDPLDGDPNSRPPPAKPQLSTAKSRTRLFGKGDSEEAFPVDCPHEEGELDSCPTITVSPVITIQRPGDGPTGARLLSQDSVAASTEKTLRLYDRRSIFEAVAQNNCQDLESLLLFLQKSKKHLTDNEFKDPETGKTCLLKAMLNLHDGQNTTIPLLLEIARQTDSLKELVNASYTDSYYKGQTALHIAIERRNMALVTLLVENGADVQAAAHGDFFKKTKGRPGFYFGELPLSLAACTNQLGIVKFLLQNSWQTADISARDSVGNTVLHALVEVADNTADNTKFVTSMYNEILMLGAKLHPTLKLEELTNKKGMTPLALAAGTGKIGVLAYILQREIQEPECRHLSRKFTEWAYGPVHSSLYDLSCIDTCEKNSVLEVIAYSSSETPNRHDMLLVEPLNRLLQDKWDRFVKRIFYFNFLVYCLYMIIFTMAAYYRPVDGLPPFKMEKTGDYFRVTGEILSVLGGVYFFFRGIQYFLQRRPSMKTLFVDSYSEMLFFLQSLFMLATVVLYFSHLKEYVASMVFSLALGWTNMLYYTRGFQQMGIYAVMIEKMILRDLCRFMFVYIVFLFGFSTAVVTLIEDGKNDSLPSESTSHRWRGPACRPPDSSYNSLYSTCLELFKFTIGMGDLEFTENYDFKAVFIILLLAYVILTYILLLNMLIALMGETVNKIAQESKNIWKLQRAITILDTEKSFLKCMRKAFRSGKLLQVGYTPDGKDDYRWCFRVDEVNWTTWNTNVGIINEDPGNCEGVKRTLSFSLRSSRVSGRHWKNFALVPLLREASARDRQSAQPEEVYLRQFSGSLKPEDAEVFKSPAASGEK
Description: The TRPV1/CHO cell line was generated as described below. […] The resulting PCR products were purified from agarose gels using Gel Band Purification Kit (GE Healthcare Bioscience) and were subcloned into pCR-Blunt vector (Invitrogen). The cloned cDNA was fully sequenced using a fluorescent dye-terminator reagent (BigDye Terminator ver3.1 Cycle Sequencing Kit, Applied Biosystems) and ABI Prism 3100 genetic analyzer (Applied Biosystems). The pCR-Blunt vector containing the hTRPV1 cDNA was subjected to restriction digestion with EcoR1. The restriction fragment was subcloned into expression vector pcDNA3.1(-) (Invitrogen) and named pcDNA3.1(-)-hVR1 plasmid. The sequence of the cDNA encoding TRPV1 is available at GenBank accession number AJ277028. […] The cells were transfected with the pcDNA3.1(-)-hVR1 plasmid using FuGENE6 (Roche) according to the manufacturer's protocol. 24 hr after transfection, neomycin-resistant cells were selected using 1 mg/mL G418 (Nacalai Tesque). […] The cells expressing hTRPV1 were cultured in the growth medium supplemented with 1 mg/mL G418. […] Subsequently, the cells were loaded by incubation in 0.1 mL of wash buffer containing Fluo-4 at 3 μM final concentration. After 1 hour, the cells were washed twice with 0.2 mL wash buffer and resuspended in 0.1 mL wash buffer. The plates were then transferred to a Fluorescence Imaging Plate Reader (Molecular Devices). Fluorescence intensity was monitored for 15 seconds to establish a baseline. […] The final concentration of the compound was adjusted to range from 100 μM to 1.5625 μM. […] Data were collected over the entire time course and analyzed using Excel and the curve-fitting formula GraphPad Prism.

TRPV1 receptor = TRPV1 receptor (Rattus norvegicus (Rat), UniProt O35433); assay: Capsaicin-induced eye wipe test; assay type: in vivo; conditions: for number of capsaicin-induced eye wipes: pre-administration value 24
TRPV1 receptor, sequence (O35433 whole entry): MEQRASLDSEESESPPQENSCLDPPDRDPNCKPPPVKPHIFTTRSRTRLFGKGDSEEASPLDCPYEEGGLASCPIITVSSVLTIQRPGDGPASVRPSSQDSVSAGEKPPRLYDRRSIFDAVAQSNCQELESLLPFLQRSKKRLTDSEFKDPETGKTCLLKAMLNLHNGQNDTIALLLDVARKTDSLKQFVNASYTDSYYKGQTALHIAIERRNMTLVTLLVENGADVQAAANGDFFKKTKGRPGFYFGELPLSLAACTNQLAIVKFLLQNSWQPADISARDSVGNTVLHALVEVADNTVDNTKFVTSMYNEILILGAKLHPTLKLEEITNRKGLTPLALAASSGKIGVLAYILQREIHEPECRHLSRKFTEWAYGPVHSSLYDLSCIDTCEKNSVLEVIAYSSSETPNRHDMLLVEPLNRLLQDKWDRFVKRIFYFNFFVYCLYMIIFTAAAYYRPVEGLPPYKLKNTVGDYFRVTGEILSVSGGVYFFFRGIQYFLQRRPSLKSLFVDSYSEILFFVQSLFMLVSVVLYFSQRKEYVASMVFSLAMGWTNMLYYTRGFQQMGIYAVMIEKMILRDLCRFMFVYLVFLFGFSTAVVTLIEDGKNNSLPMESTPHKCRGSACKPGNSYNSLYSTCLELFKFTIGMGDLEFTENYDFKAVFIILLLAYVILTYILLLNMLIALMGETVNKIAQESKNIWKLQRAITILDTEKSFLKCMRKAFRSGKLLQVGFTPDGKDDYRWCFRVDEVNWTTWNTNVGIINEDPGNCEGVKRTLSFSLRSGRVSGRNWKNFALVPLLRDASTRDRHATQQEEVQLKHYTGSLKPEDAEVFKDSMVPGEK
Description: Each experiment uses rats weighing between 200-260 g at the start of the experiment. The rats are group-housed and have free access to food and water at all times, except prior to oral administration of a compound of formula I when food is removed for 16 hours before dosing. A control group acts as a comparison to rats treated with a compound of formula I. The control group is administered the carrier for the compound of formula I. The volume of carrier administered to the control group is the same as the volume of carrier and compound of formula I administered to the test group.
To assess the effect of compounds of formula I on TRPV1 receptor-mediated pain, the capsaicin-induced eye wipe test is used (N. R. Gavva et al., “AMG 9810 [(E)-3-(4-t-Butylphenyl)-N-(2,3-dihydrobenzo[b][1,4]dioxin-6-yl)acrylamide], a Novel Vanilloid Receptor 1 (TRPV1) Antagonist with Antihyperalgesic Properties”, J. Pharmacol. Exp. Ther. 313:474-484 (2005)). The eye wipe test is a reliable high-throughput test of the effect of TRPV1 antagonists. Rats are given a single injection of 1, 3, 10 or 30 mg/kg of either a compound of formula I; 30 mg/kg of a control selected from Celebrex, indomethacin or naproxen; or carrier. At 1, 3 or 5 hours after drug administration, […] of a 100 μM capsaicin solution (in 10% EtOH/PBS) is instilled in one eye of each animal with a pipette. The number of forelimb movements (touching or wiping of the capsaicin-treated eye) are counted during a 2 minute period following instillation of capsaicin into the eye.

Compound | aqueous solubility at pH 1.2 (Aqueous solubility) | aqueous solubility at pH 6.8 (Aqueous solubility) | further results
O=C(Nc1ccc(C(F)(F)F)cc1)N1CC=C(c2ncccc2Cl)CC1 [Compound 200] | < 0.1 μM | < 0.1 μM | aqueous solubility at pH 6.8 (in words) (Aqueous solubility): insoluble; time to maximum plasma concentration after administration ([1]; animal plasma): 3.1 h
O=C(Nc1ccc(C(F)(F)F)cc1)N1CCC(F)(c2ncccc2Cl)CC1 [Compound 203] |  |  | aqueous solubility at pH 6.8 (in words) (Aqueous solubility): insoluble
O=C(Nc1ccc(C(F)(F)F)cc1)N1CCC(F)(c2ncccc2F)CC1 [Compound 207] |  |  | aqueous solubility at pH 6.8 (in words) (Aqueous solubility): insoluble
O=C(Nc1ccc(C(F)(F)F)cc1)N1CC=C(c2ncccc2F)CC1 [Compound 208] |  |  | aqueous solubility at pH 6.8 (in words) (Aqueous solubility): insoluble
O=C(Nc1ccc(C(F)(F)F)c(F)c1)N1CCC(F)(c2ncccc2Cl)CC1 [Compound 209] | 9.3 μM | 1.0 μM | 
O=C(Nc1ccc(S(=O)(=O)C(F)(F)F)cc1)N1CCC(F)(c2ncccc2Cl)CC1 [Compound 210] | 2.0 μM | 0.4 μM | 
O=C(Nc1ccc(OC(F)(F)F)cc1)N1CCC(F)(c2ncccc2Cl)CC1 [Compound 211] | 1.3 μM | 0.4 μM | 
O=C(Nc1ccc(C(F)(F)F)c(F)c1)N1CCC(F)(c2ncccc2F)CC1 [Compound 212] | 10.3 μM | 1.9 μM | 
O=C(Nc1ccc(C(F)(F)F)c(F)c1)N1CC=C(c2ncccc2Cl)CC1 [Compound 213] | 39.6 μM | 0.8 μM | 
O=C(Nc1ccc(OC(F)(F)F)cc1)N1CC=C(c2ncccc2Cl)CC1 [Compound 214] | > 50 μM | 1.8 μM | 
O=C(Nc1ccc(C(F)(F)F)c(Cl)c1)N1CC=C(c2ncccc2F)CC1 [Compound 215] | 9.6 μM | 0.6 μM | 
O=C(Nc1ccc(OC(F)(F)F)cc1)N1CCC(F)(c2ncc([C@H](O)CO)cc2Cl)CC1 [Compound C1] | > 50 μM | 15.7 μM | 
O=C1C=C(c2ncc([C@H](O)CO)cc2Cl)CCN1C(=O)Nc1ccc(C(F)(F)F)cn1 [Compound C6] |  |  | IC50 (human TRPV1): > 25000 nM
O=C(Nc1ccc(OC(F)(F)F)c(-c2ccccc2)c1)N1CC=C(c2ncc(CO)cc2Cl)CC1 [Compound D3] |  |  | IC50 (human TRPV1): 565 ± 58.6 nM
CC(C)(C)c1ccc(NC(=O)N2CC=C(c3ncc([C@@H](O)CO)cc3Cl)CC2)cc1 [Compound E1] |  |  | IC50 (human TRPV1): 18.5 ± 4.9 nM
O=C(Nc1ccc(OC(F)(F)F)cc1)N1CC=C(c2ncc([C@H](O)CO)cc2Cl)CC1 [Compound E2] | > 50 μM | > 50 μM | 
O=C(Nc1ccc(C(F)(F)F)c(F)c1)N1CCC(F)(c2ncc([C@H](O)CO)cc2Cl)CC1 [Compound F1] | > 50 μM | 22.6 μM | 
CCOC(=O)c1cnc(C2=CCN(C(=O)Nc3ccc(C(F)(F)F)cc3)CC2)c(Cl)c1 [Compound F2] | 1.0 μM | 3.0 μM | 

Compound | aqueous solubility at pH 1.2 (Aqueous solubility) | aqueous solubility at pH 6.8 (Aqueous solubility) | further results
COC(=O)Cc1cnc(C2=CCN(C(=O)Nc3ccc(C(F)(F)F)cc3)CC2)c(Cl)c1 [Compound F6] | > 50 μM | 9.2 μM | 
CC(O)c1cnc(C2=CCN(C(=O)Nc3ccc(C(F)(F)F)cc3)CC2)c(Cl)c1 (centres unmarked) [Compound G2] | > 50 μM | 38.2 μM | 
O=C(O)Cc1cnc(C2=CCN(C(=O)Nc3ccc(C(F)(F)F)cc3)CC2)c(Cl)c1 [Compound G6] | > 50 μM | > 50 μM | 
O=C(Nc1ccc(S(=O)(=O)C(F)(F)F)cc1)N1CCC(F)(c2ncc([C@H](O)CO)cc2Cl)CC1 [Compound H1] | > 50 μM | > 50 μM | 
CN(C)Cc1cnc(C2=CCN(C(=O)Nc3ccc(C(F)(F)F)cc3)CC2)c(Cl)c1 [Compound H6] | > 50 μM | > 50 μM | 
O=C(Nc1ccc(C(F)(F)F)cc1)N1CC=C(c2ncc(CO)cc2Cl)CC1 [Compound J2] | > 50 μM | > 50 μM | 
CC(C)S(=O)(=O)c1ccc(NC(=O)N2CC=C(c3ncc(CO)cc3Cl)CC2)cc1 [Compound K3] |  |  | IC50 (human TRPV1): > 10000 nM
O=C(O)c1cnc(C2=CCN(C(=O)Nc3ccc(C(F)(F)F)cc3)CC2)c(Cl)c1 [Compound M5] |  |  | IC50 (human TRPV1): > 25000 nM
O=C(Nc1ccc(C(F)(F)F)cc1)N1CCC(F)(c2ncc([C@H](O)CO)cc2Cl)CC1 [Compound N1, (S)-4-(3-chloro-5-(1,2-dihydroxyethyl)pyridin-2-yl)-4-fluoro-N-(4-(trifluoromethyl)phenyl)piperidine-1-carboxamide] | > 50 μM | 28.0 μM | decrease of eye wipes relative to pre-administration value (TRPV1 receptor; 1 hour after administration): 87.5%; number of capsaicin-induced eye wipes (TRPV1 receptor; 1 hour after administration): 3; decrease of eye wipes relative to pre-administration value (TRPV1 receptor; 3 hours after administration): 96%; number of capsaicin-induced eye wipes (TRPV1 receptor; 3 hours after administration): 1; decrease of eye wipes relative to pre-administration value (TRPV1 receptor; 5 hours after administration): 92%; number of capsaicin-induced eye wipes (TRPV1 receptor; 5 hours after administration): 2
O=C(Nc1ccc(C(F)(F)F)cc1)N1CCC(F)(c2ncc([C@H](O)CO)cc2F)CC1 [Compound N6] | > 50 μM | > 50 μM | 
O=C(Nc1ccc(C(F)(F)F)c(Cl)c1)N1CCC(F)(c2ncc([C@@H](O)CO)cc2F)CC1 [Compound P5] |  |  | IC50 (human TRPV1): 49.5 nM
O=C(Nc1ccc(C(F)(F)F)c(Cl)c1)N1CCC(F)(c2ncc([C@H](O)CO)cc2F)CC1 [Compound Q3] |  |  | IC50 (human TRPV1): 14.3 ± 1.3 nM
O=C(Nc1ccc(C(F)(F)F)c(F)c1)N1CC=C(c2ncc([C@H](O)CO)cc2Cl)CC1 [Compound S1, (S)-3-Chloro-5-(1,2-dihydroxy-ethyl)-3′,6′-dihydro-2′H-[2,4]bipyridinyl-1′-carboxylic acid (3-fluoro-4-trifluoromethyl-phenyl)amide] | > 50 μM | > 50 μM | 
O=C(Nc1ccc(C(F)(F)F)cc1)N1CC=C(c2ncc([C@H](O)CO)cc2F)CC1 [Compound U1] | > 50 μM | > 50 μM | 
O=C(Nc1ccc(C(F)(F)F)c(Cl)c1)N1CC=C(c2ncc([C@H](O)CO)cc2F)CC1 [Compound U3] | > 50 μM | 26.4 μM | 
O=C(Nc1ccc(C(F)(F)F)c(F)c1)N1CCC(F)(c2ncc([C@H](O)CO)cc2F)CC1 [Compound Y3] | > 50 μM | 17.4 μM | 
O=C(Nc1ccc(C(F)(F)F)cc1)N1CC=C(c2ncc([C@H](O)CO)cc2Cl)CC1 [Compound Z1, (S)-3-Chloro-5-(1,2-dihydroxy-ethyl)-3′,6′-dihydro-2′H-[2,4]bipyridinyl-1′-carboxylic acid (4-trifluoromethyl-phenyl)amide] | > 50 μM | > 50 μM | time to maximum plasma concentration after administration ([1]; animal plasma): 2.5 h; maximum plasma concentration relative to the maximum for compound 200 ([1]; animal plasma, for a given dose): 2.5 times; plasma concentration up to 24 h compared with compound 200 ([1]; up to 24 h): consistently greater
